Marks after values point to notes of the source that are not given here. Values belong to the molecule of their own block, whether it stands above or below them.
Assays:
NR2B [1] = molecular target: T1, NR2B (Homo sapiens, UniProt Q05586+Q13224); conditions: Ki estimated from equilibrium binding displacement IC50 at a single concentration; low affinity site; read-out: 2B (μM) Ki*; cited from earlier work
NR2D [2] = molecular target: T2, NR2D (Homo sapiens, UniProt O15399+Q05586); conditions: Ki estimated from equilibrium binding displacement IC50 at a single concentration; low affinity site; read-out: 2D (μM) Ki*; cited from earlier work
NR2C = NR2C (Homo sapiens, UniProt Q05586+Q14957); conditions: Ki estimated from equilibrium binding displacement IC50 at a single concentration; low affinity site; read-out: 2C (μM) Ki*; cited from earlier work
NR2D [3] = molecular target: T2, NR2D; assay: Literature equilibrium binding displacement, NR2D (Table 1)
NR2A [4] = molecular target: T3, NR2A (Homo sapiens, UniProt Q05586+Q12879); conditions: Ki estimated from equilibrium binding displacement IC50 at a single concentration; low affinity site; read-out: 2A (μM) Ki*; cited from earlier work
NR2B [5] = molecular target: T1, NR2B; assay: Literature equilibrium binding displacement, NR2B (Table 1)
NR2A [6] = molecular target: T3, NR2A; conditions: cited from earlier work
NR2B [7] = molecular target: T1, NR2B
NR2B [8] = molecular target: T1, NR2B; conditions: Kb determined by Schild analysis; read-out: 2B (μM) Kb; cited from earlier work

T1 sequence (Q13224 27-1484, other chains not shown): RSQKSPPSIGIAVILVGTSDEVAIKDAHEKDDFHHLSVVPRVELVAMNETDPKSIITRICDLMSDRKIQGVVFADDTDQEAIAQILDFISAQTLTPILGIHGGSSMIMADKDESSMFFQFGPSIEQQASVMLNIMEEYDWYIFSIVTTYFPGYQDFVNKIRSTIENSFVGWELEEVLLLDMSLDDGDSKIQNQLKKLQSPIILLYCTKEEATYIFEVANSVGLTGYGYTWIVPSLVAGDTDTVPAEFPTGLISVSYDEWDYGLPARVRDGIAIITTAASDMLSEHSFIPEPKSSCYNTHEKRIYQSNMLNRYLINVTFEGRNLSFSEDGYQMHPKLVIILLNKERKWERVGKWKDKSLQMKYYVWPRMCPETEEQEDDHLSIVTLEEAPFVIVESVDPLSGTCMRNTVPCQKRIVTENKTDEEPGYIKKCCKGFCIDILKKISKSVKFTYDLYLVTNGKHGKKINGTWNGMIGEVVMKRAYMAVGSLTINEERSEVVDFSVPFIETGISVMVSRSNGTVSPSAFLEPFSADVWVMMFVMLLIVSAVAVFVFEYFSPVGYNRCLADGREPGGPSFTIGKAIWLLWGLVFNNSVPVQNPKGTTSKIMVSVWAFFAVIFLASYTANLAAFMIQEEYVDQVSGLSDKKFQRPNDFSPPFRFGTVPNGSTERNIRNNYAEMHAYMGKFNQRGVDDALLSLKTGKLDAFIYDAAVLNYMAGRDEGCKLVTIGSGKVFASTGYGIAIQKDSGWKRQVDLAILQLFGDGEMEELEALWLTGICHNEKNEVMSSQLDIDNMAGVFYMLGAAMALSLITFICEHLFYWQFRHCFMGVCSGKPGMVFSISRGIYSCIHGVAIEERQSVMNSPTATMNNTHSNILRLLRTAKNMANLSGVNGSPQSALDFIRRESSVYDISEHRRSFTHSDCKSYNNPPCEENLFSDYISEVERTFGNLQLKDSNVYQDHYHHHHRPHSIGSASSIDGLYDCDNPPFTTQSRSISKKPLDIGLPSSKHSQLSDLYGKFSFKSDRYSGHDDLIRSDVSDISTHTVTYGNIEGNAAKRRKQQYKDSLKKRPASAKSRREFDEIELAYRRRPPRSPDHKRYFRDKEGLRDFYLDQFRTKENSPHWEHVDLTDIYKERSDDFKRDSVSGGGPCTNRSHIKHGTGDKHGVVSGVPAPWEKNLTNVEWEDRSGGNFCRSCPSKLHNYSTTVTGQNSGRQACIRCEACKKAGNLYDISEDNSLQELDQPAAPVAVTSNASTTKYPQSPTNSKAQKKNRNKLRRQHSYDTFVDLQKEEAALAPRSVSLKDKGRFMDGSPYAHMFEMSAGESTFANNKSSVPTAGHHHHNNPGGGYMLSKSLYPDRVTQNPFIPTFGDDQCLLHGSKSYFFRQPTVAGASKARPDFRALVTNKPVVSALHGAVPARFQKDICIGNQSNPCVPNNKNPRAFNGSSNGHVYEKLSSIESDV
T3 sequence (Q12879 23-1464, other chains not shown): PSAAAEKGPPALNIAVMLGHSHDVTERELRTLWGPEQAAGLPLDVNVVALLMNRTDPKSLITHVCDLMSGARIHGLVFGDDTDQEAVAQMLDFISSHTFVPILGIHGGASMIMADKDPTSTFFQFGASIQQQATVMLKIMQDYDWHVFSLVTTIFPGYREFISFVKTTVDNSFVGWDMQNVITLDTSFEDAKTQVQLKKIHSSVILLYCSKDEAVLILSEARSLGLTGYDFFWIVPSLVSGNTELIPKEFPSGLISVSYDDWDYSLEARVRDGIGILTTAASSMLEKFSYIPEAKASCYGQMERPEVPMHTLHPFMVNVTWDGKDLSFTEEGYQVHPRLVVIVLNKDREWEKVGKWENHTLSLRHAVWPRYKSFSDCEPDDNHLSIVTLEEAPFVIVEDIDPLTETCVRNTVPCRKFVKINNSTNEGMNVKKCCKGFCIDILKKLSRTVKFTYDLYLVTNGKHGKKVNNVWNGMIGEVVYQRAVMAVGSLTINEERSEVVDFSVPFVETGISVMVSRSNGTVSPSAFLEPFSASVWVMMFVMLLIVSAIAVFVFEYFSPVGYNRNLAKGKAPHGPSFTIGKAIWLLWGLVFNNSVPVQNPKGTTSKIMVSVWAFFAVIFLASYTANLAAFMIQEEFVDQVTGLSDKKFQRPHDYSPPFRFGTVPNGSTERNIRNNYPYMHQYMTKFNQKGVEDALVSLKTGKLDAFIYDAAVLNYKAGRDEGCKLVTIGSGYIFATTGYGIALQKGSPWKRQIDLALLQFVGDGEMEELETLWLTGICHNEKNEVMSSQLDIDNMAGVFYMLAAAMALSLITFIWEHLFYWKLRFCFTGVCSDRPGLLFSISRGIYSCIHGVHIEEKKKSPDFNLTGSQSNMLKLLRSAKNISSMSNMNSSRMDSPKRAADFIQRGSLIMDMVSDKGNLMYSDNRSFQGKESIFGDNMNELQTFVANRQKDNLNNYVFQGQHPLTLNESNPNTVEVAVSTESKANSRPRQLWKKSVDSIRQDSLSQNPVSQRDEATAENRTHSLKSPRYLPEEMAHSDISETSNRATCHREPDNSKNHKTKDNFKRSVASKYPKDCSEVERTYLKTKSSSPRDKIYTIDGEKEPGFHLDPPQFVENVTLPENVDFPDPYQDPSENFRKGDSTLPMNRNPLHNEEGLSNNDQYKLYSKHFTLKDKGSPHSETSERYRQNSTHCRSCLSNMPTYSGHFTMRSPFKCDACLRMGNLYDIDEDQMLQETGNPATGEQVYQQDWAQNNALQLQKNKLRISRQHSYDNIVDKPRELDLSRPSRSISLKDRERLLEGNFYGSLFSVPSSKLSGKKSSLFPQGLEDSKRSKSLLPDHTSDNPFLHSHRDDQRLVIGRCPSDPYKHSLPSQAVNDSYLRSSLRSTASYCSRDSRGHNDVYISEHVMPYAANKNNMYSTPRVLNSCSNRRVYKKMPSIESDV
T2 sequence (O15399 28-1336, other chains not shown): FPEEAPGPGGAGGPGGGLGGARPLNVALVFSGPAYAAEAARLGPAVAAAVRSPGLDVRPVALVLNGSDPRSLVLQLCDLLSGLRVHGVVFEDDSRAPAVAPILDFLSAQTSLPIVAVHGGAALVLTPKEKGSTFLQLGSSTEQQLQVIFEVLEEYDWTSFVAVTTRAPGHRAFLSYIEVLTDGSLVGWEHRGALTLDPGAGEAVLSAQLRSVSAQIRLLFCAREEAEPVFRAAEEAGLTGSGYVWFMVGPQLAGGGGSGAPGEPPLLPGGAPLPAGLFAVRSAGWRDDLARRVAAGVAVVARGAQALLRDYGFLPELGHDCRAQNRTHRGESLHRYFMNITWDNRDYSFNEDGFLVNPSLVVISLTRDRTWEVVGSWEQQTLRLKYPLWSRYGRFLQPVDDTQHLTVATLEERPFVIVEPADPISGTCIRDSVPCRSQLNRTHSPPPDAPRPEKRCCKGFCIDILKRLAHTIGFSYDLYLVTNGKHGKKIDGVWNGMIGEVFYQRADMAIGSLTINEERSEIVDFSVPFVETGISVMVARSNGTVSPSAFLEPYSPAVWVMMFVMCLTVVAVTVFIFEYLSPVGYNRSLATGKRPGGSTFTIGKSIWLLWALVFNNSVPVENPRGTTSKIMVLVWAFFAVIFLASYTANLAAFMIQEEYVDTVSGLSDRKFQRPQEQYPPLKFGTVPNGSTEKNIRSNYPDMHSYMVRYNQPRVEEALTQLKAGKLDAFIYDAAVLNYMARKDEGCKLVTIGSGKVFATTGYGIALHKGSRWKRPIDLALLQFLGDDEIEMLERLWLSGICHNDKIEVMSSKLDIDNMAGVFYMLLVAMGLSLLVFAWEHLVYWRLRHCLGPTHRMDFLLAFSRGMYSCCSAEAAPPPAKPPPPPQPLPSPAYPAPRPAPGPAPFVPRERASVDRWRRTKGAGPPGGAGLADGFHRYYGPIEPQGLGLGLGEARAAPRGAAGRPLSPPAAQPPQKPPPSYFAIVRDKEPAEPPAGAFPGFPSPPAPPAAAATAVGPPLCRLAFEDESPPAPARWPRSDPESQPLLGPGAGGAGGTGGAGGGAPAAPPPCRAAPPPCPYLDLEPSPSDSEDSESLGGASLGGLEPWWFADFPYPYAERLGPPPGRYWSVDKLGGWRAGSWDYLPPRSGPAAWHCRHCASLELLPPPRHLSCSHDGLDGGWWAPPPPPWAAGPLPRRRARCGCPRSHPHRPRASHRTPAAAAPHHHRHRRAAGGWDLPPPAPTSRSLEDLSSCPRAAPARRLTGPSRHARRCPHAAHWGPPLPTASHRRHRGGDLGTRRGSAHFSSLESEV

Structure (SMILES): O=C(/C=C/c1c(C(=O)[O-])[nH]c2cc(Cl)cc(Cl)c12)Nc1ccccc1.[Na+] [GV150, 526A]
potency estimated from few doses (NR2B [1]): 0.08 µM
potency estimated from few doses (NR2D [2]): 0.05 µM
potency estimated from few doses (NR2C): 0.11 µM
2A/2D (ratio of Ki*) (NR2D [3]): 1.6*
potency estimated from few doses (NR2A [4]): 0.08 µM
2A/2B (ratio of Ki*) (NR2B [5]): 1.0*

2A/2B (ratio of Kb) (NR2B [7]): 0.2
Structure (SMILES): C[C@H](N[C@@H](c1cccc2[nH]c(=O)c(=O)[nH]c12)P(=O)(O)O)c1ccc(Br)cc1 [NVP-AAM07]
Kb (NR2A [6]; Kb determined by Schild analysis, read-out: 2A (μM) Kb): 15.2 µM
selectivity for NR2A over NR2B (NR2A [6]; Schild analysis (Kb)): 5 fold
Kb (NR2B [8]): 78 µM
